Laboratory results as given in PubChem BioAssay (NCI).
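Following 48 hours of exposure in 96-well plates, responses at five concentrations were used to interpolate endpoints linearly. GI50 is the concentration that inhibits growth by half. TGI denotes the concentration required for complete inhibition of growth.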

Columns and labels:
Experiment in all cases: inhibition of tumour cell growth, NCI panel, 48 h
[1] = tested on: CAKI-1 renal
[2] = tested on: HOP-92 NSCLC
[3] = tested on: K-562 leukemia
[4] = tested on: NCI-H23 lung
[5] = tested on: OVCAR-3 ovarian
[6] = tested on: OVCAR-5 ovarian
[7] = tested on: SNB-19 CNS
[8] = tested on: DU-145 prostate
[9] = tested on: MOLT-4 leukemia
[10] = tested on: SR leukemia
[11] = tested on: BT-549 breast

Compound | TGI [1] [µM] | TGI [2] [µM] | TGI [3] [µM] | TGI [4] [µM] | TGI [5] [µM] | TGI [6] [µM] | TGI [7] [µM] | TGI [8] [µM] | TGI [9] [µM] | TGI [10] [µM] | GI50 [1] [µM] | GI50 [2] [µM] | GI50 [3] [µM] | GI50 [9] [µM] | GI50 [4] [µM] | GI50 [5] [µM] | GI50 [6] [µM] | GI50 [7] [µM] | TGI [11] [µM]
CCCCCCc1cn([C@H]2C[C@H](O)[C@@H](CO)O2)c(=O)[nH]c1=O | > 100 | > 100 | > 100 | > 100 | > 100 | > 100 | > 100 |  |  |  |  |  |  |  |  |  |  |  | 
C=CCn1c(=O)c2ccccc2[n+]2c(-c3cccc([N+](=O)[O-])c3)csc12 | > 100 | > 100 | > 100 | > 100 | > 100 | > 100 | > 100 | > 100 | > 100 | 98.3 |  |  |  |  |  |  |  |  | 
NC1CCCCC1N.O=S(=O)([O-])CCCN1CCN(CCO)CC1.O=S(=O)([O-])CCCN1CCN(CCO)CC1.[Pt+4] | 9.16 | 59.3 | 44.8 | > 100 | > 36.4 | > 38.7 | > 100 |  | 20.6 |  | 0.856 | 19 | 4.81 | 0.587 | 7.36 | 4.44 | 8.22 | 43.1 | 
COC1=CC(=O)c2c(cc(COP(=O)(N(C)CCBr)N(C)CCBr)n2C)C1=O | 2.26 | 7.54 | > 100 | 2.28 | 10.7 | 4.35 | 14.7 | 19.5 | > 100 |  |  |  |  |  |  |  |  |  | 3.94
c1ccc(-c2[nH]c(-c3ccccc3)c(-c3cnccn3)c2-c2cnccn2)cc1 | > 100 | > 100 | > 100 | > 100 | > 100 | > 100 | > 100 |  | > 100 | > 100 |  |  |  |  |  |  |  |  | 
Cc1ccc2c(=O)c(C(=O)N(CCO)CCO)c[nH]c2n1 | > 100 |  | > 100 | > 100 | > 100 | > 100 | > 100 | > 100 | > 100 |  |  |  |  |  |  |  |  |  | > 100
CC(=O)O[C@H]1C(=O)[C@@]2(C)C(C(OC(=O)c3ccccc3)[C@]3(O)CC(OC(=O)C(O)C(NC(=O)c4ccccc4)c4ccc(C)cc4)C(C)=C1C3(C)C)[C@]1(OC(C)=O)CO[C@@H]1C[C@@H]2O (stereo not given in full) | 12.1 | 11.3 | > 25 | 21.8 |  | 0.237 | 0.523 |  | 5.82 |  |  |  |  |  |  |  |  |  | 
COc1ccc(NS(=O)c2cccc(C)c2)cc1 (stereo not given) | > 100 |  | > 100 | > 100 | > 100 | > 100 | > 100 | > 100 | > 100 | > 100 |  |  |  |  |  |  |  |  | 
CCOC(=O)c1c(-c2ccc(OC)c(O)c2)c(C#N)c(=S)n(C2OC(CO)C(O)C(O)C2O)c1-c1ccccc1 (stereo not given) | > 100 |  | > 100 | > 100 |  |  | > 100 | > 100 | > 100 | > 100 |  |  |  |  |  |  |  |  | 
CC1OC=CC(=O)C1O (stereo not given) |  | > 100 | > 100 | > 100 | > 100 | > 100 |  |  | > 100 | > 100 |  |  |  |  |  |  |  |  | 
CN(CCN(C)C(=O)CCn1ccc(=O)[nH]c1=O)C(=O)CCn1ccc(=O)[nH]c1=O |  |  | > 100 | > 100 | > 100 | > 100 | > 100 |  | > 100 | > 100 |  |  |  |  |  |  |  |  | 
CC1(C)N=C(N)N=C(N)N1c1ccc(OCCCOc2ccccc2)c(Cl)c1 | 44.3 | 3.83 | > 42.8 | 10.7 | 14 | 10.4 | 1.06 |  | 16.8 |  |  |  |  |  |  |  |  |  | 
COc1ccc(N2C(=O)C(N3C(=O)C=CC3=O)C2C=O)cc1 (stereo not given) | > 100 | > 100 | > 100 | > 100 | > 100 | > 100 | > 100 |  |  | > 100 |  |  |  |  |  |  |  |  | 
CC1(C)CC(=O)C(=CN2C(=O)CNC2=S)C(=O)C1 | > 100 | > 100 |  | > 100 | > 100 | > 100 | > 100 | > 100 | > 100 |  |  |  |  |  |  |  |  |  | > 100
O=C1OC(c2ccccc2)=N/C1=C/N1CCCC1C(=O)O (stereo not given) | > 100 | > 100 | > 100 | > 100 | > 100 | > 100 | > 100 |  |  |  |  |  |  |  |  |  |  |  | 
COc1cccc(C2CC(=O)c3cccn32)c1 (stereo not given) | > 100 | > 100 | > 100 | > 100 | > 100 | > 100 | > 100 | > 100 | > 100 | > 100 |  |  |  |  |  |  |  |  | 
